# Results reported in ChEMBL document CHEMBL1201862, “PubChem BioAssay data set” (2004).
# Values joined by “and” are separate entries in the source; they are usually repeats but may differ in a detail not shown here. Equal entries are not always repeated. Structures can show the parent of a compound that is named as a salt.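 Dose response: 5 concentrations. Exposure: 48 h. Format: 96-well plates. Endpoint: linear interpolation; highest concentration if not reached. GI50 = concentration required for 50% inhibition of growth.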 Active and inactive are the calls of the source. No stated cut-off is given here; in the data, active = GI50 up to about 1.1 µM and inactive = higher.
# Experiments:
# Test in all cases: growth of human tumour cells (NCI), 48 h
# UACC-257 = tested on: UACC-257
# T47D = tested on: T47D
# U-251 = tested on: U-251
# SK-MEL-2 = tested on: SK-MEL-2
# LOX IMVI = tested on: LOX IMVI
# COLO 205 = tested on: COLO 205
# TK-10 = tested on: TK-10
# KM12 = tested on: KM12
# OVCAR-5 = tested on: OVCAR-5
# NCI-H226 = tested on: NCI-H226
# DU-145 = tested on: DU-145
# EKVX = tested on: EKVX
# NCI-H23 = tested on: NCI-H23
# K562 = tested on: K562
# OVCAR-8 = tested on: OVCAR-8
# SF-295 = tested on: SF-295
# 786-0 = tested on: 786-0
# HOP-92 = tested on: HOP-92
# BT-549 = tested on: BT-549
Structure (SMILES),GI50 (UACC-257),GI50 (T47D),GI50 (U-251),GI50 (SK-MEL-2),GI50 (LOX IMVI),GI50 (COLO 205),GI50 (TK-10),GI50 (KM12),GI50 (OVCAR-5),GI50 (NCI-H226),GI50 (DU-145),GI50 (EKVX),GI50 (NCI-H23),GI50 (K562),GI50 (OVCAR-8),GI50 (SF-295),GI50 (786-0),GI50 (HOP-92),GI50 (BT-549)
O=C(/C=C/c1ccsc1)c1ccc(Cl)cc1,> 100 µM (inactive),74.8 µM (inactive),66.4 µM (inactive),> 100 µM (inactive),25.5 µM (inactive),> 100 µM (inactive),> 100 µM (inactive),35.3 µM (inactive),56.1 µM (inactive),52 µM (inactive),> 100 µM (inactive),97.7 µM (inactive),35.3 µM (inactive),20.6 µM (inactive),64.7 µM (inactive),> 100 µM (inactive),89.5 µM (inactive),–,–
NCCOCn1cc(Cc2cccc(OCc3ccccc3)c2)c(=O)[nH]c1=O,–,–,> 100 µM (inactive),> 100 µM (inactive),39 µM (inactive),92.5 µM (inactive),> 100 µM (inactive),> 100 µM (inactive),–,> 100 µM (inactive),–,> 100 µM (inactive),> 100 µM (inactive),42.8 µM (inactive),> 100 µM (inactive),> 100 µM (inactive),53.6 µM (inactive),> 100 µM (inactive),–
Nc1nc(N)c2ncn(CC3CCC(CO)C3)c2n1 (centres undefined),> 100 µM (inactive),> 100 µM (inactive),> 100 µM (inactive),> 100 µM (inactive),> 100 µM (inactive),> 100 µM (inactive),> 100 µM (inactive),> 100 µM (inactive),> 100 µM (inactive),> 100 µM (inactive),> 100 µM (inactive),> 100 µM (inactive),–,> 100 µM (inactive),–,> 100 µM (inactive),> 100 µM (inactive),> 100 µM (inactive),–
CC(C)CC[C@H](O)[C@@H](C)[C@H]1[C@@H](OC2OC(C)C(O)C(O)C2O)C[C@H]2[C@@H]3CC=C4C[C@@H](O)CC[C@]4(C)[C@H]3[C@@H](O)C[C@]12C (some centres undefined),1.12 µM (inactive),–,0.0562 µM (active),> 27 µM (inactive),0.889 µM (active),1.8 µM (inactive),0.692 µM (active),3.28 µM (inactive),> 24.9 µM (inactive),–,–,11.4 µM (inactive),8.49 µM (inactive),0.235 µM (active),> 100 µM (inactive),0.0402 µM (active),0.084 µM (active),0.312 µM (active),0.491 µM (active)
Oc1nc(S)nc2nc3c4cccnc4c4ccccc4c3nc12,> 100 µM (inactive),–,> 100 µM (inactive),–,–,> 100 µM (inactive),> 100 µM (inactive),79.8 µM (inactive),> 100 µM (inactive),–,> 100 µM (inactive),> 100 µM (inactive),> 100 µM (inactive),–,> 100 µM (inactive),> 100 µM (inactive),> 100 µM (inactive),> 100 µM (inactive),> 100 µM (inactive)
O=c1[nH]c(=O)n(C2OC(CO)C(O)C2O)c2ccsc12 (centres undefined),> 100 µM (inactive),–,> 100 µM (inactive),> 100 µM (inactive),> 100 µM (inactive),> 100 µM (inactive),> 100 µM (inactive),> 100 µM (inactive),> 100 µM (inactive),> 100 µM (inactive),> 100 µM (inactive),> 100 µM (inactive),> 100 µM (inactive),> 100 µM (inactive),> 10 µM (inactive),> 100 µM (inactive),> 100 µM (inactive),> 100 µM (inactive),> 100 µM (inactive)
CCOC(=O)C(NC(=O)CC(C)C)(Nc1ccc(C(F)(F)F)cc1)C(F)(F)F (centres undefined),44.3 µM (inactive),18.4 µM (inactive),28 µM (inactive),15.7 µM (inactive),84.5 µM (inactive),–,40.5 µM (inactive),14.7 µM (inactive),> 100 µM (inactive),> 100 µM (inactive),89.9 µM (inactive),> 100 µM (inactive),76.4 µM (inactive),23.9 µM (inactive),27.1 µM (inactive),> 100 µM (inactive),82.4 µM (inactive),30.3 µM (inactive),–
O=C(NCCn1ccnn1)Nc1ccccc1,> 100 µM (inactive),–,> 100 µM (inactive),> 100 µM (inactive),> 100 µM (inactive),> 100 µM (inactive),> 100 µM (inactive),> 100 µM (inactive),> 100 µM (inactive),–,> 100 µM (inactive),> 100 µM (inactive),> 100 µM (inactive),> 100 µM (inactive),> 100 µM (inactive),> 100 µM (inactive),> 100 µM (inactive),> 100 µM (inactive),> 100 µM (inactive)
Cc1cc(C)c(N)c(CO)c1,45.3 µM (inactive) and 58.5 µM (inactive),–,61.1 µM (inactive) and 56.1 µM (inactive),> 100 µM (inactive),> 100 µM (inactive),36.2 µM (inactive) and 46.7 µM (inactive),–,> 100 µM (inactive),–,–,> 100 µM (inactive),> 100 µM (inactive) and 81.1 µM (inactive),> 100 µM (inactive),59.8 µM (inactive) and 67.5 µM (inactive),> 100 µM (inactive),> 73.6 µM (inactive) and > 74.8 µM (inactive),> 100 µM (inactive),> 59.2 µM (inactive),> 100 µM (inactive)
CC1(C)C(/C=N\O)=[N+]([O-])C(C)(C)N1O,> 100 µM (inactive),> 100 µM (inactive),> 100 µM (inactive),> 100 µM (inactive),> 100 µM (inactive),> 100 µM (inactive),> 100 µM (inactive),> 100 µM (inactive),> 100 µM (inactive),> 100 µM (inactive),> 100 µM (inactive),> 100 µM (inactive),> 100 µM (inactive),> 100 µM (inactive),> 100 µM (inactive),> 100 µM (inactive),> 100 µM (inactive),> 100 µM (inactive),–
COC(=O)c1nc(C(=O)OC)c2c([nH]c3ccccc32)c1C(=O)OC,> 100 µM (inactive),–,99.8 µM (inactive),> 100 µM (inactive),58.5 µM (inactive),> 100 µM (inactive),> 100 µM (inactive),> 100 µM (inactive),> 100 µM (inactive),37.7 µM (inactive),–,–,> 100 µM (inactive),–,> 100 µM (inactive),91.4 µM (inactive),> 100 µM (inactive),> 100 µM (inactive),–
Cc1ccc(C(=O)/C=C/N2CCN(c3cccc(C(F)(F)F)c3)CC2)cc1,16.4 µM (inactive),20.1 µM (inactive),16.8 µM (inactive),18.6 µM (inactive),–,24.3 µM (inactive),25.3 µM (inactive),18.7 µM (inactive),21.4 µM (inactive),16.9 µM (inactive),16 µM (inactive),18.7 µM (inactive),16.8 µM (inactive),18.7 µM (inactive),17.5 µM (inactive),17.5 µM (inactive),18.2 µM (inactive),27.1 µM (inactive),–
CCN(CC)CC(O)C1CCC(c2ccccc2)CC1 (centres undefined),21 µM (inactive),26.9 µM (inactive),19.8 µM (inactive),16.7 µM (inactive),17.4 µM (inactive),12.8 µM (inactive),15.3 µM (inactive),24 µM (inactive),23.2 µM (inactive),15.8 µM (inactive),61 µM (inactive),0.437 µM (active),30.4 µM (inactive),26.8 µM (inactive),16.3 µM (inactive),17.1 µM (inactive),15.6 µM (inactive),18.6 µM (inactive),–
CC1(C)CC2=C(SC3C=CC=CC3N2)C(=O)C1C(=O)C(N)=O (centres undefined),> 100 µM (inactive),–,> 100 µM (inactive),> 100 µM (inactive),> 100 µM (inactive),> 100 µM (inactive),> 100 µM (inactive),> 100 µM (inactive),> 100 µM (inactive),91 µM (inactive),> 100 µM (inactive),> 100 µM (inactive),> 100 µM (inactive),–,> 100 µM (inactive),> 100 µM (inactive),> 100 µM (inactive),> 100 µM (inactive),> 100 µM (inactive)
Cc1ccc(/N=N/c2cc(=O)[nH]c(=O)[nH]2)cc1C,13.7 µM (inactive),–,15.2 µM (inactive),–,1.71 µM (inactive),7.76 µM (inactive),19.4 µM (inactive),12.1 µM (inactive),15.4 µM (inactive),19.1 µM (inactive),14.7 µM (inactive),17.9 µM (inactive),–,2.79 µM (inactive),14.6 µM (inactive),15.3 µM (inactive),2.82 µM (inactive),16.4 µM (inactive),13.7 µM (inactive)
COc1ccc(S(=O)(=O)O)cc1-n1nc(C(=O)Nc2ccccc2)n[n+]1-c1cc(S(=O)(=O)[O-])ccc1OC,–,> 100 µM (inactive),> 100 µM (inactive),–,–,> 100 µM (inactive),> 100 µM (inactive),> 100 µM (inactive),> 100 µM (inactive),> 100 µM (inactive),> 100 µM (inactive),> 100 µM (inactive),> 100 µM (inactive),> 100 µM (inactive),–,> 100 µM (inactive),> 100 µM (inactive),–,–
NCCS [CYSTEAMINE HYDROCHLORIDE],> 100 µM (inactive),> 100 µM (inactive),> 100 µM (inactive),> 100 µM (inactive),> 100 µM (inactive),> 100 µM (inactive),> 100 µM (inactive),> 100 µM (inactive),> 100 µM (inactive),> 100 µM (inactive),> 100 µM (inactive),> 100 µM (inactive),> 100 µM (inactive),> 100 µM (inactive),> 100 µM (inactive),> 100 µM (inactive),> 100 µM (inactive),–,–
